Measurements published in US8067445B2, “N,N-disubstituted aminoalkylbiphenyl antagonists of prostaglandin D2 receptors” (Panmira Pharmaceuticals, LLC, priority 2008, dated 2011).

What was measured:
human DP2 receptor = biological target: T1, human DP2 receptor (Homo sapiens, UniProt Q9Y5Y4); test: DP2/CRTH2 radioligand binding assay ([3H]PGD2); settings: [3H]PGD2 binding, membranes of HEK293 cells expressing human DP2; read-out: hDP2
T1 construct: expressed in transfected cells
T1 sequence (Q9Y5Y4 1-395): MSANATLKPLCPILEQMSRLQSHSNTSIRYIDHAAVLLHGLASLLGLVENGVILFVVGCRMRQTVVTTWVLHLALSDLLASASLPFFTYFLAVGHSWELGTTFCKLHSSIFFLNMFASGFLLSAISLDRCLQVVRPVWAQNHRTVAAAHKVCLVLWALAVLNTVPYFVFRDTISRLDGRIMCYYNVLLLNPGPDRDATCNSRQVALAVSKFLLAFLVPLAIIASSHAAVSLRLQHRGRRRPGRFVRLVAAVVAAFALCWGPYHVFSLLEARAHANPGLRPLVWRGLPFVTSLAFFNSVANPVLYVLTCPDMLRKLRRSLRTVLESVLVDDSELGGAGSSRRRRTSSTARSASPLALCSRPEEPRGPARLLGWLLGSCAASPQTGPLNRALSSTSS
Procedure, shortened: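 Membranes from HEK293 cells stably expressing recombinant human DP2 incubated 60 min at room temperature with 1 nM [3H]PGD2 and compound in pH 7.4 Hepes/MnCl2/EDTA buffer, ± 0.2% human serum albumin. Bound radioactivity measured after filtration; non-specific binding defined with 10 μM PGD2. IC50 from titration curves.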

human DP1 receptor = biological target: T2, human DP1 receptor (Homo sapiens, UniProt Q13258); test: DP1 radioligand binding assay ([3H]BWA868C, platelet membranes); settings: [3H]BWA868C binding, human platelet membranes; read-out: hDP1
T2 construct: tissue Biological Specialty Corporation; host or cells: human platelet membranes
T2 sequence (Q13258 1-359): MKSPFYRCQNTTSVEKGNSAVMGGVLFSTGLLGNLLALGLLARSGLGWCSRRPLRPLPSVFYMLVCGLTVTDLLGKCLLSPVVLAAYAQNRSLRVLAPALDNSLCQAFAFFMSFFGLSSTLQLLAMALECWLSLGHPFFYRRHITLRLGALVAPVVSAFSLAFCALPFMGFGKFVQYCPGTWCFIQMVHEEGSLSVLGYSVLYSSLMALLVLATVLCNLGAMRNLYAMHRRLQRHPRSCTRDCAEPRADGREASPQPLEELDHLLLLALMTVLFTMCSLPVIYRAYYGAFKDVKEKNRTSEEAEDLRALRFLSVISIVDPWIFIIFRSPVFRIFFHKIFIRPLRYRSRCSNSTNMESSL
Procedure, shortened: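 Human platelet membranes (20 μg protein/well) incubated 60 min at room temperature with 2 nM [3H]BWA868C and compound in 50 mM Hepes, 10 mM MnCl2, 1 mM EDTA, pH 7.4, ± 0.2% human serum albumin. Bound radioactivity measured after filtration; nonspecific binding defined with 10 μM BWA868C; IC50 from titration curves.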

[1] = biological target: T3, recombinant human CRTH2 receptor (Homo sapiens, UniProt Q9Y5Y4); test: GTPγS binding assay; format: biochemical; settings: +HSA (0.2% human serum albumin), 80 nM PGD2, CHO cell membranes; read-out: hDP2 GTPγS μM (+HSA)
T3 construct: expressed in transfected cells
T3 sequence (Q9Y5Y4 1-395): T1 sequence (Q9Y5Y4 1-395)
Protocol: The ability of a compound to inhibit binding of GTP to DP2 is assessed via a membrane GTPγS assay. CHO cells stably expressing the recombinant human CRTH2 receptor are resuspended in 10 mM Hepes, 7.4 containing 1 mM DTT, lysed and centrifuged at 75,000×g to pellet the membranes. The membranes are resuspended in 10 mM Hepes, 7.4 containing 1 mM DTT and 10% glycerol. […] The reactions are terminated by rapid filtration through Whatman GF/B glass fibre filter plates. The filter plates are washed 3 times with 1 ml cold Assay Buffer and dried. Scintillant is then added to the plates and the radioactivity retained on the filters is determined on a Packard TopCount (Perkin Elmer). Specific binding is determined as total radioactive binding minus non-specific binding in the absence of the ligand (80 nM PGD2). IC50s were determined using Graphpad prism analysis of drug titration curves.

| IC50 (human DP2 receptor) [nM] | IC50 (human DP1 receptor) [nM] | IC50 [1] [µM] | Compound |
| --- | --- | --- | --- |
| < 300 | 1000 to 30000 | < 0.3 | CCN(Cc1cc(C(F)(F)F)ccc1-c1cc(CC(=O)O)cc(C(F)(F)F)c1)C(=O)C1CC1 [Compound 1-136, {2′-[(Cyclopropanecarbonyl-ethyl-amino)-methyl]-5,4′-bis-trifluoromethyl-biphenyl-3-yl}-acetic acid] |
| 300 to 1000 | < 300 | 0.3 to 1 | COc1ccc(CC(=O)O)cc1-c1ccc(C(F)(F)F)cc1CN(C(C)=O)[C@@H]1CCc2ccccc21 [Compound 1-13, {2′-[((R)-Acetyl-indan-1-yl-amino)-methyl]-6-methoxy-4′-trifluoromethyl-biphenyl-3-yl}-acetic acid] |
| < 300 | 300 to 1000 | < 0.3 | CCN(Cc1cc(C(F)(F)F)ccc1-c1cc(CC(=O)O)ccc1OCc1ccccc1)C(=O)OCc1ccccc1 [Compound 1-128, {6-Benzyloxy-2′-[(benzyloxycarbonyl-ethyl-amino)-methyl]-4′-trifluoromethyl-biphenyl-3-yl}-acetic acid] |
| < 300 | 1000 to 30000 | < 0.3 | CCN(Cc1cc(C(F)(F)F)ccc1-c1cc(Cl)cc(CC(=O)O)c1)C(=O)OCc1ccccc1 [Compound 1-108, {2′-[(Benzyloxycarbonyl-ethyl-amino)-methyl]-5-chloro-4′-trifluoromethyl-biphenyl-3-yl}-acetic acid] |
